The source of these data is patent US20120108607A1, “OPTICALLY ACTIVE 3-[(PHENYLPIPERAZIN-1-YL)ALKYL]-3- ALKYL-OXINDOLE DERIVATIVES HAVING CNS ACTIVITY” (priority 2009, published 2012).

Several values for one entry are separate records, joined by “and”; a condition that tells them apart may be missing. Identical values can stand only once. Entries after “also recorded” stand apart in the source; their conditions may differ.

In one series the target is T1, 5-HT2A receptors (Rattus norvegicus, UniProt P14842).
T1 construct: brain tissues from male Wistar rats weighing 120-200 g; from tissue
The series is described as follows: receptor-binding assay, 5-HT2A (3H-ketanserine, frontal cortex). The settings on record: for Ki: 3H-ketanserine 1.0 nM, frontal cortex. An excerpt: In the receptor-binding assays, brain tissues from male Wistar rats weighing 120-200 g or cloned human 5-HT6 or D4 receptors were used.
The basic information with regard the receptor-binding assay is disclosed in Table 1.

A further series concerns male Wistar rats. The series can be described thus: Vogel's drinking conflict model (anxiolytic effect). The class given is in vivo, rat. The conditions noted are these: ip., 30 minutes before the test, MED = minimum dose resulting in statistically significant effect. As to the method: Vogel's drinking conflict model was used for establishing the anxiolytic effect (Vogel at el., Psychopharmacologia, 21, 1, 1971). Male Wistar rats weighing 200 to 220 grams were restrained from drinking for 48 hours and deprived from feed for 24 hours prior to the experiment. The test substances or the vehicle were administered to the animals in a dose of 5.0-10.0-20.0 mg/kg intraperitoneally 30 minutes before the test. The test chamber was provided with a drinking tube which allowed the animals to drink. However, after each twentieth licking, the apparatus delivered a 0.7 mA electric shock to the animal. During the five-minute measurement period, the number of electric shocks was registered which the animals tolerated to appease their thirst. The effect of the test substance was expressed in the percentage increase in the number of tolerated electric shocks. The minimum effective dose (MED) was determined for each compound.

The target of series [1] is T2, cloned human 5-HT6 receptors (Homo sapiens, UniProt P50406).
T2 construct: expressed in transfected cells
The series is described as follows: receptor-binding assay, 5-HT6 (3H-LSD, HEK 293 cells). The settings on record: for Ki: 3H-LSD 2.7 nM, HEK 293 cells. The method, then: (§1) In the receptor-binding assays, brain tissues from male Wistar rats weighing 120-200 g or cloned human 5-HT6 or D4 receptors were used. The protein contents of the membrane preparates were determined according to Lowry (Lowry O. H., Rosenbrough N. J., Farr A. L., Randall R. J., Protein measurement with the Folin-Phenol reagents. J Biol Chem, 193: 265-275 (1951).
(§2) The basic information with regard the receptor-binding assay is disclosed in Table 1. The binding assays were carried out according to the method of Leysen (Leysen J. E, Niemegeers C. J. E, Van Nueten J. M., Laduron P. M.: ^[3H]Ketanserin (R41468), a selective ^[3H]ligand for Serotonine2 receptor binding. Mol Pharmacol, 21: 301-314 (1981)). The tested compound was deemed to be effective in the case when the Ki value was smaller than 100 nM.

A further series concerns male DBA mice. The series can be described thus: Porsolt's test (antidepressant effect). The settings on record: for Porsolt-test (model for antidepressant effect), MED: ip., 30 minutes before the test, p<0.05. The class given is in vivo, mouse. The method, then: The antidepressant effect of the compounds of the Formula (I) has been established in Porsolt's test in male DBA mice weighing 20 to 25 grams. The swimming experiment was carried out in cylinders of 17.7 cm height and 12 cm diameter (Porsolt, R. D.: Behavioral despair. In: Enna, S. J., Malick, J. B., and Richelson, E. (eds.): “Antidepressants: Neurochemical, Behavioral, and Clinical Prespectives.” New York: Raven Press, 1981. pp. 121-139). In each experiment, four cylinders were used simultaneously. The animals were treated 30 minutes before the test with the test substances or with the vehicle in the dose of 1-3-10 mg/kg i.p. Animals were allowed to stay in the cylinder for six minutes. In the first two minutes, no measurement was made since this period was considered as the adaptation period. In the following four minutes (minutes 3 to 6 of the experiment) the time spent in immobile state was determined. The immobile time was registered for each animal with a precision of one second. The average was calculated for each group and the percentage effect was calculated for each treated group with reference for the control group. The statistical significance of the differences between groups was analyzed by […].
On the basis of the statistical significance determined for the difference of each dose from the control, MED (minimum effective dose) values were calculated. […] A significant decrease of time spent in immobility was interpreted as an antidepressant effect.

For the next series, the system named is male NMRI mice. The series can be described thus: permanent focal cerebral ischemia model (neuroprotective effect). The class given is in vivo, mouse. The settings on record: ip., 30 minutes after surgery. As to the method: The neuroprotective effect of the compounds of the Formula (I) was tested in the permanent focal cerebral ischemia model according to the modified method of Karkoutly and coworkers (Karkoutly, C., Backhauss, C., Nuglisch, J., Krieglstein, J.: The measurement of the infarcted area after middle cerebral artery occlusion in the mouse: a screening model. In Krieglstein, J., Oberpichler, H. ed. Pharmacology of Cerebral Ischemia 1990. Wissenschaftliche Verlagsgesellschaft mbH Stuttgart. 63-69 (1990).).
Male NMRI mice weighing 30 to 35 grams were anesthetized with 2,2,2-tribromoethanol administered intraperitoneally in the dose of 500 mg/kg (20 ml/kg). During anesthesia, surgery was performed according to the surgical protocol of Welsh and coworkers (Welsh, F. A., Sakamoto, T., McKee, A., Sims, R. E.: Effect of lactacidosis on pyridine nucleotide stability during ischemia in mouse. J. Neurochem. 49: 846-851 (1987)). The distal part of the middle […] artery (MCA) was occluded with electric cauter. Test compounds were administered intraperitoneally 30 minutes after surgery in the dose of 0.1-0.3-1.0-3.0-10.0 mg/kg). After 48 hours, mice were anesthetised by 120 mg/kg sodium pentobarbital intraperitoneally. The brains were perfused through the left ventricle with 2 ml of 4% 2,3,5-triphenyl-tetrazolium-chloride (TTC) solution. After one hour, the brains was removed and placed into ice-cool saline for one to two minutes. Subsequently the brains were placed into 8% aqueous formaldehyde solution. After 24 hours, the area of white lesions was determined by a computerized image analysis software. The statistical evaluation was performed by variance analysis followed by Duncan-test.

For series [2], the target named is T3, cloned human D4 receptors (Homo sapiens, UniProt P21917).
T3 construct: expressed in transfected cells
T3 sequence (P21917 1-419): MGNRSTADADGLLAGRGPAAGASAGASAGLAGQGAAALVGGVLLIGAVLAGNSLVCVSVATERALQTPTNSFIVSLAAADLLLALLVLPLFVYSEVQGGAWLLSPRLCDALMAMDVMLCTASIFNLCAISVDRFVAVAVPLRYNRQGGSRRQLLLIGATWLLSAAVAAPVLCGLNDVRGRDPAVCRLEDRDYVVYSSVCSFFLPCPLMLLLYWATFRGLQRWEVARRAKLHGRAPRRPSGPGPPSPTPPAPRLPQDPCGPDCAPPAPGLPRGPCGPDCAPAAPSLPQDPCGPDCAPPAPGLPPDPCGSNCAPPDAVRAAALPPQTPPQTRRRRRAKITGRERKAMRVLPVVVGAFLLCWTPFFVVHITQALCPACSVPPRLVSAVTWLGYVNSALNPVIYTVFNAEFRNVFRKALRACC
The series can be described thus: receptor-binding assay, D4 (3H-YM-09151-2, SF9 cells). The settings on record: for Ki: 3H-YM-09151-2 0.28 nM, SF9 cells. As to the method:
as §1, §2

T2 sequence (P50406 whole entry): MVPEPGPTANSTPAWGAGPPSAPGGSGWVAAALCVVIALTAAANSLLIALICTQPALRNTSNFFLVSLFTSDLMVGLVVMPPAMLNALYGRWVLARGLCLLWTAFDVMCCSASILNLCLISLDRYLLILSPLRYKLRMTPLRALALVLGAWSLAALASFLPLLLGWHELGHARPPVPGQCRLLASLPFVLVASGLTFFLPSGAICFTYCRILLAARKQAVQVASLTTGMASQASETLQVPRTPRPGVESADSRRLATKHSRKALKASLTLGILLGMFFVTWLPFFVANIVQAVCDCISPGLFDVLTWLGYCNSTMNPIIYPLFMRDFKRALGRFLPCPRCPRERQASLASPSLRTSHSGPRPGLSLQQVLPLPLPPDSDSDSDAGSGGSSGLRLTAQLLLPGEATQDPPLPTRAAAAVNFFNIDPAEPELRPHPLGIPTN
T1 sequence (P14842 whole entry): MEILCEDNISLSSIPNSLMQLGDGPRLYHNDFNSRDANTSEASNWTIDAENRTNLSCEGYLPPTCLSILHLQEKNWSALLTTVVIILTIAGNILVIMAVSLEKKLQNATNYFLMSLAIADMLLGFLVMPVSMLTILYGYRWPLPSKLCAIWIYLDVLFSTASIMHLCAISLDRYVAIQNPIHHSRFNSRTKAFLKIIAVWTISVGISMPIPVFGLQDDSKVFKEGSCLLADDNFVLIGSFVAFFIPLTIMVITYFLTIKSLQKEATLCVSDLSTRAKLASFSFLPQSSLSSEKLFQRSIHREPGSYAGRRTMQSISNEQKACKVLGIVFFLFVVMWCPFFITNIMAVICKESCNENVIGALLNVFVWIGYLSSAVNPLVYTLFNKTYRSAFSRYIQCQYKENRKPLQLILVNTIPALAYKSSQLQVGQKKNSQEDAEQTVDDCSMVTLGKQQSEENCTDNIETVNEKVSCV

Turning to `CCC1(CCCCN2CCN(c3ccc(Cl)cc3)CC2)C(=O)Nc2c(Cl)cc(Cl)cc21` (single isomer, unassigned; (-)) [(−)-enantiomer of the Formula (I), (−)-5,7-dichloro-3-{4-[4-(4-chlorophenyl)-piperazin-1-yl]-butyl}-3-ethyl-1,3-dihydro-2H-indol-2-one], the melting point fell in the range of 139 to 140 °C. Further, at 5-HT2A receptors, the “affinity to the central 5-HT2A receptors (in words)” value is given as “affinity greater by several orders of magnitude” and the affinity, expressed as Ki, was 42 nM. The “Vogel-test (model for anxiolytic effect), MED” value (shortened to “Vogel-test”) in the series with male Wistar rats is “No effect”. Also, the “Vogel-test” value with male Wistar rats (listed as (−)-5,7-dichloro-3-{4-[4-(4-chlorophenyl)-piperazin-1-yl]butyl}-3-ethyl-1,3-dihy) is recorded as “did not show any anxiolytic effect”. The “affinity towards central 5-HT6 receptors (in words)” value in series [1] is given as “not bound”. Further, the “Porsolt-test (model for antidepressant effect), MED” value (from here on “Porsolt-test”) in the series on male DBA mice is “No effect”. Moreover, in the series on male NMRI mice, the “Permanent cerebral ischemia model (model for neuroprotective effect), MED” value (shortened to “Permanent cerebral ischemia model”) is 3 mg/kg and 3.0 mg/kg. Also, in series [2], the “affinity to the central D4 receptors (in words)” value is “significant affinity” and the affinity, expressed as Ki, was 13 nM.

Molecule `CCC1(CCCCN2CCN(c3ccc(Cl)cc3)CC2)C(=O)Nc2c(Cl)cc(Cl)cc21` (racemic) [Compound of the Formula (II), 5,7-dichloro-3-{4-[4-(4-chlorophenyl)-piperazin-1-yl]butyl}-3-ethyl-1,3-dihydro-2H-indol-2-one] yielded a melting point of 152 to 154 °C. Further, at 5-HT2A receptors, the “affinity to the central 5-HT2A receptors (in words)” value is recorded as “affinity greater by several orders of magnitude” and the inhibition constant Ki was determined as 50 nM. The “Vogel-test” value in the series on male Wistar rats is reported as 5 mg/kg. Further, in series [1], the “affinity towards central 5-HT6 receptors (in words)” value is “significant affinity” and the affinity, expressed as Ki, was 9 nM. Further, in the series with male DBA mice, the “Porsolt-test” value stood at 3 mg/kg. Moreover, the “antidepressant activity in Porsolt's test (in words)” value in the series on male DBA mice (mice) was “significant, dose-dependent antidepressant activity”. Further, the “Permanent cerebral ischemia model” value with male NMRI mice is given as 0.1 mg/kg. Moreover, in series [2], the “affinity to the central D4 receptors (in words)” value is “did not show any significant binding” and the inhibitory constant (Ki) is above 100 nM.

Molecule `CCC1(CCCCN2CCN(c3ccc(Cl)cc3)CC2)C(=O)Nc2c(Cl)cc(Cl)cc21` (single isomer, unassigned; (+)) [(+)-enantiomer of the Formula (I), (+)-5,7-dichloro-3-{4-[4-(4-chlorophenyl)-piperazin-1-yl]butyl}-3-ethyl-1,3-dihydro-2H-indol-2-one] displayed a melting point of 139 to 141 °C. Also, the inhibition constant Ki at 5-HT2A receptors is above 200 nM. Also, the “Vogel-test” value in the series with male Wistar rats was determined as 10 mg/kg. Moreover, in series [1], the “affinity towards central 5-HT6 receptors (in words)” value is “significant affinity” and the Ki worked out at 11 nM. Also, the “Porsolt-test” value in the series with male DBA mice is listed as “No effect”. In addition, the “Permanent cerebral ischemia model” value in the series on male NMRI mice is reported as “ineffective; also recorded: No effect”. Moreover, in series [2], the affinity, expressed as Ki, was 35 nM.

For orientation: Ki means a dissociation constant, usually derived from enzyme kinetics or from competition with a known ligand. Low readings indicate higher affinity, high ones lower affinity. The term melting point denotes the temperature, or range, at which the solid turns liquid.
